In patent publication US20110251251A1, “POLYMORPH II OF AN ANTIFUNGAL COMPOUND” (FERRER INTERNACIONAL, S.A, priority 2008, published 2011):

Columns and labels:
Format in all cases: physicochemical
[1] = Determination of apparent density and compacted density (Stampf STAV 2003 volumeter); conditions: for Compacted density: weight/final volume after 2500 strokes; for Apparent density: weight/initial volume
Experimental: The determination of apparent and compacted densities was carried out with a Stampf STAV 2003 volumeter equipped with a 100-mL glass volumetric flask.
• (i) The flask was filled with a volume between 50 and 100 mL of test sample. • (ii) The volume occupied before the test (mL) was recorded. • (iii) 2500 strokes were performed with the volumeter. • (iv) The volume occupied after the test (mL) was recorded. • (v) The amount of analyzed sample (g) was weighed.
• (i) Apparent density (g/mL)=weight/initial volume • (ii) Compacted density (g/mL)=weight/final volume

[2] = Stability of polymorph II (humidity, temperature, polymorphic transition)
Experimental: The start of endothermic peak temperature occurred at 437.6° K, but the first recorded weight loss began at 449° K from DTA analysis. Polymorph II placed in a furnace at 423° K started decomposition after 2 hours.

[3] = DTA / thermogravimetric analysis (weight loss)
Experimental: The necessary amounts were carefully weighed for completing ¾ parts of the 70-μl Al2O3 crucible provided with a perforated lid that was hermetically sealed. Then, the crucible was placed into the furnace and the experiment started. The samples were heated from […] at a rate of 5° C./min under a N2 stream, the flow rate being 80 mL/min. Mass loss rate was calculated in relation to baseline by horizontal tangent plot. […] The start of endothermic peak temperature occurred at 437.6° K, but the first recorded weight loss began at 449° K from DTA analysis. Polymorph II placed in a furnace at 423° K started decomposition after 2 hours.

Compacted density ([1]; listed as Polymorph 1) | Compacted density ([1]; listed as polymorph I) | Apparent density ([1]; listed as Polymorph 1) | Apparent density ([1]; listed as polymorph I) | Stability in 1-month test ([2]; 1-month test at ambient temperature or humidity) | Stability after 1 day ([2]; 1 day at 25° C./80 RH) | Transition from II to I ([2]; during 1-month test) | Stability at high temperature compared with polymorph I ([2]; high temperatures (higher than 80° C.)) | Stability against humidity ([2]; humidity) | Time to start of decomposition ([2]; placed in a furnace at 423° K) | Stability at temperature ([2]; temperature below 423° K) | Temperature at which first recorded weight loss began [3] | Compacted density [1] | Compacted density ([1]; listed as polymorph II) | Apparent density [1] | Apparent density ([1]; listed as polymorph II) | SMILES
1.08 g/mL | 1.08 g/mL | 0.78 g/mL | 0.78 g/mL |  |  |  |  |  |  |  |  |  |  |  |  | Clc1ccc([C@H](Cn2ccnc2)OCc2csc3c(Cl)cccc23)c(Cl)c1 [Polymorph I, arasertaconazole mononitrate]
 |  |  |  | remained stable | remained stable | No transition from II to I was observed | more stable at high temperature | stable | 2 h | stable | 449 ° K | 0.53 g/mL | 0.53 g/mL | 0.39 g/mL | 0.39 g/mL | Clc1ccc([C@H](Cn2ccnc2)OCc2csc3c(Cl)cccc23)c(Cl)c1 [Polymorph II, arasertaconazole mononitrate]
